Experimental findings from ChEMBL document CHEMBL1156922, “Interaction between double helix DNA fragments and the new antitumor agent sabarubicin, Men10755” (Bioorg Med Chem, 2010) are described below.

Assay [1] concerns Nucleic Acid. Briefly: Binding affinity to d(CGATCG)2 assessed as average residence time. It is filed as nucleic-acid assay.
Assay [2] has as its system Nucleic Acid. Briefly: Binding affinity to d(CGTACG)2 assessed as average residence time. It is filed as nucleic-acid assay.

Turning to `C[C@@H]1O[C@@H](O[C@@H]2[C@H](C)O[C@@H](O[C@H]3C[C@](O)(C(=O)CO)Cc4c(O)c5c(c(O)c43)C(=O)c3ccccc3C5=O)C[C@@H]2O)C[C@H](N)[C@@H]1O`, the TIME in assay [1] came to 0.000131 h; in assay [2], 5.83e-05 h.
With `COc1cccc2c1C(=O)c1c(O)c3c(c(O)c1C2=O)C[C@@](O)(C(=O)CO)C[C@@H]3O[C@H]1C[C@H](N2CCO[C@H](OC)C2)[C@H](O)[C@H](C)O1`, the TIME in assay [2] turned out to be 0.00139 h.
For `COc1cccc2c1C(=O)c1c(O)c3c(c(O)c1C2=O)C[C@@](O)(C(=O)CO)C[C@@H]3O[C@H]1C[C@H](N)[C@H](O)[C@H](C)O1`, the figures for the TIME in assay [1] and in assay [2] were 0.000231 h and 0.000347 h, respectively.
For `CC(=O)[C@]1(O)Cc2c(O)c3c(c(O)c2[C@@H](O[C@H]2C[C@H](O)[C@H](O[C@H]4C[C@H](N)[C@H](O)[C@H](C)O4)[C@H](C)O2)C1)C(=O)c1ccccc1C3=O`, in that order: 5e-05 h and 5e-05 h.
